Data published in US5147856A, “Method for inhibiting blood vessel blockage using octapeptide compositions” (Societe de Conseils de Recherches et d'Applications …, priority 1988, dated 1992).
Where “and” joins values, the source holds several entries; their conditions need not be identical. Equal values may be shown once. Square brackets hold non-standard residues; d marks the D form. Mpa = O=C(O)CCS

Tests used:
[1] = system: myointimal proliferation of the carotid artery; assay: Air-drying injury of the rat carotid artery, intimal/media ratio (Example 2); assay type: in vivo; conditions: for Intimal/Media Ratio: mean ± SE; for Inhibition of myointimal (smooth muscle cell) proliferation of the carotid artery, in words: administered from two days prior to injury, at the doses used (20 and 50 μg/kg/day)
Method: Male Sprague-Dawley rats, weighing […], obtained from Charles River were kept under controlled lighting conditions and fed rat chow and water ad libitum. Under sodium pentobarbital anesthesia the intima of the right carotid artery was subjected to an air-drying injury described by Fishman et al, Lab Invest., 32, 339 (1975). The procedure causes intimal hyperplasia that largely consists of proliferating intimal smooth muscle cells. In this model approximately 4 cm of the vessel is isolated and drained of blood. Air (20 ml/min) is blown through a 30 gauge needle for 5 min whereafter blood flow is reestablished. The contralateral carotid artery was also exposed but not air-dried. The rats were sacrificed 15 days later.
The experiment consisted of a control group and ten treatment groups. The somatostatin analogs used were hepta- or octapeptides, namely BIM 23014 (Angiopeptin), BIM 23012, BIM 23027, BIM 23030 and BIM 23034. […] The animals were pretreated two days prior to the procedure and for a further five days following the endothelial injury. Two additional groups of animals were added in order to study whether Angiopeptin (20 μg/kg/day and 50 μg/kg/day) administered 30 min prior to the endothelial injury and for a further five days would protect against the myointimal proliferation.
The animals were sacrificed on day 15 following the injury by exsanguination. The vascular system was flushed with normal saline and perfusion-fixed at 80 mmHg with 10% formalin. The carotid arteries were subsequently fixed, embedded and sectioned for light microscopy and morphometric analysis. The maximal intimal/media ratio is the distance from the lumen to the internal elastic lamina and the distance from the internal elastic lamina to the external elastic lamina. The distances were determined in each vessel using a digitizing system attached to a light microscope. The determinations were performed on three different cross sections of the vessel and each section was measured three times. The mean was calculated for each vessel. Differences between the groups were evaluated using Student's unpaired t-test.

growth hormone release = conditions: cited from earlier work; for Inhibition of growth hormone release, in words: in vivo; for Potency for growth hormone suppression in vivo, relative to somatostatin 14: rats, compared to somatostatin 14 (=1)
[2] = system: hyperplasia of the right carotid artery; assay: Air-drying injury of the rat right carotid artery, ratio of width of intimal and medial layers (Example 4); assay type: in vivo; conditions: 50 μg/kg/day s.c. twice a day
Method: Angiopeptin was administered s.c. twice a day 50 μg/kg/day to male Sprague-Dawley (Charles River) rats, 250-350 g each. After two days of pre-treatment, a lesion was made on the third day after the morning dose by air-drying the right carotid artery while the rats were under anesthesia (Ketamine-Innovar, i.m.). Treatment was continued on day: 4, 5, 6, and 7. The rats were sacrificed on day 14 following the injury. After in-situ fixation at constant pressure, with 10% formalin, the tissues were prepared to form morphometrics.
Hyperplasia was measured as the ratio of width of intimal and medial layers. For each rat, 3 different histological sections were measured and the morphometrics was done 3 times on each section.

[3] = system: myointimal cell proliferation in the aortas of rabbits; assay: Rabbit aorta 72 hours after balloon angioplasty: wet weight, protein, DNA/protein, 3-H thymidine incorporation (Example 6); assay type: in vivo; conditions: for DNA/Protein ratio, in words: FIG. 3; for Rates of cell proliferation by 3-H thymidine incorporation, in words: FIG. 4
Method: New Zealand White Rabbits were anesthetised with Rompun (Xylazine) and Ketalar (Ketamine) and a cannula (3F Fogarty) was inserted from the femoral artery. The balloon was inflated at a constant pressure and the aorta was de-endothelialised by angioplasty. The process was repeated three times and the wound site was closed. The animals were sacrificed 72 hours after balloon angioplasty and after removing the adventitia the aorta was cut into fine rings. These rings were incubated in the presence of 3-H thymidine and the radioactivity was determined after processing the tissue. Simultaneous measurements of DNA and protein contents were also made in these tissues.
Eight injections of Angiopeptin were made: on the morning and evening of the day prior to ballooning; two on the day of the procedure; and two on each of the following two days. The total daily dose was 2, 20, or 200 μg/Kg body weight.

[4] = system: smooth muscle cell proliferation in the aorta and femoral arteries; assay: Primate balloon catheter injury of aorta and femoral arteries (Example 5); assay type: in vivo, cynomologous macaque; conditions: aorta and left and right femoral arteries; i.m. slow release system, 50 μg/kg/day; one treated primate vs one control; five weeks
Method: In order to obtain a primate coronary angioplasty model which would be suited for evaluation of Angiopeptin, a feasibility study was performed on primates which were made available from the colony at Bowman-Gray Medical School, Winston-Salem, North Carolina. These animals were culled from the colony due to failure of the primates to satisfactorily elevate blood lipids when administered a high cholesterol diet. Young male cynomologous macaques weighing approximately 3.5 kg were used after an equilibration period of more than a week in a primate facility.
The animals were sedated with Ketamine and maintained with 1% halothane in oxygen. The aorta and femoral arteries were injured by a balloon catheter (USCI, Band). After five weeks the primates were anesthetized and sacrificed. The aorta and femoral arteries were removed and fixed in formaldehyde for morphometric analysis. […]
The maximal intimal/media ratio (distance from lumen to internal elastic lamina/distance from internal elastic lamina to external elastic lamina) was determined in each vessel using a digitizing system attached to a light microscope. The determinations were done on three different cross sections of the vessel and each section was measured three times and each three measurements were averaged.

[5] = system: Smooth Muscle Pig Left Coronary Artery Explants; assay: H3-thymidine incorporation in pig left coronary artery explants (Example 7); assay type: cell-based; conditions: 24 hr, individual segments
Method: Domestic pig hearts were obtained from a slaughter house immediately after the animals were sacrificed. The hearts were harvested and placed in ice-cold Kreb's Ringer buffer and transported to the laboratory. The left coronary artery (LAD) was dissected in aseptic conditions and divided into pieces of 5 mm. The segments were denuded from the endothelium by gently introducing a metallic rod in the lumen. The tissues were placed in sterile multiwell culture dishes in 1 ml of culture media (DMEM with antibiotics) and without fetal calf serum. H^3 -thymidine (2.5 uCi/ml) and increasing concentrations of angiopeptin (10-1000 ng/ml) were added to the medium. Segments which were incubated with 3 different concentrations of forskolin were used as a positive control in each experiment. The incubation period was 24 hr at 37° C. and 5% CO2. The tissues were washed with phosphate saline buffer and placed in a solution of cold thymidine for one hour and then frozen in liquid nitrogen, ground and lysed with a hypotonic solution. The lysed tissues were further incubated with proteinase K overnight at 50° C. The radioactivity, content of protein and DNA were measured.

[6] = system: intimal hyperplasia of aorta and iliac arteries; assay: Myointimal hyperplasia in rabbits after balloon angioplasty (Example 3); assay type: in vivo, rabbit; conditions: for % Intimal hyperplasia: 20 μg/kg twice daily s.c., individual samples; for Percentage of inhibition of myointimal hyperplasia: 20 μg/kg/d
Method: Female and Male, white New Zealand rabbits (2.8-3.0 kg) were divided into two groups (A and B). Group A (vehicle control) received subcutaneous injections of physiological saline (0.2 ml) twice daily. […] The animals were treated the day before angioplasty, and until sacrifice about 3 weeks later. The angioplasty was done under general anesthesia with Ketamine and Xylazine. Each animal's left iliac artery and aorta were denuded with an angioplasty catheter (Fogarty). The angioplasty catheter was inserted into the left femoral artery and passed through the vessel to the thoracic aorta. The catheter was then reciprocated three times. The animals were all sacrificed from days 22-24 after angioplasty. The aorta and iliac arteries were fixed in situ via perfusion with formaldehyde under constant perfusion pressure.
Intimal hyperplasia was determined on elastin-stained (Van Giesen) horizontally-cut sections. The sections were obtained from (i) the aorta at the level of the renal artery, (ii) the common iliac artery at the level of bifurcation, and (iii) the external iliac artery just above the inguinal ligament. The area of intimal hyperplasia and total vessel area were determined by morphometry. The percentage of intimal hyperplasia was expressed as follows: [formula]
Single determinations were made on three segments of each aorta and the two iliac arteries of each animal. The percentage of intimal hyperplasia was determined as the mean of the two closest measurements of each vessel.

[7] = 20 μg/kg/day s.c. in two divided doses, from two days prior to injury and five days postinjury, sacrifice day 15
[8] = 50 μg/kg/day s.c. in two divided doses, from two days prior to injury and five days postinjury, sacrifice day 15
[9] = common iliac artery, female rabbits
[10] = common iliac artery, male rabbits
[11] = external iliac artery, female rabbits

CC(C)[C@@H]1NC(=O)[C@H](CCCCN)NC(=O)[C@@H](Cc2c[nH]c3ccccc23)NC(=O)[C@H](Cc2ccc(O)cc2)NC(=O)[C@@H](NC(=O)[C@H](N)Cc2ccc3ccccc3c2)CSSC[C@@H](C(=O)N[C@H](C(N)=O)[C@@H](C)O)NC1=O [Angiopeptin, D-Nal-Cys-Tyr-D-Trp-Lys-Val-Cys-Thr-NH2]
Intimal/Media Ratio [1, 7]: 1.7 ± 0.2 | Intimal/Media Ratio ([1]; 20 μg/kg/day, pretreatment 30 min prior to injury and for a further five days): 1.6 ± 0.9 | Inhibition of myointimal proliferation, in words ([1]; 50 μg/kg/day from 30 min prior to injury and for a further five days): significantly (p<0.01) inhibited | Intimal/Media Ratio [1, 8]: 1.1 ± 0.2 | Intimal/Media Ratio ([1]; 50 μg/kg/day, pretreatment 30 min prior to injury and for a further five days): 1.0 ± 0.3 | Inhibition of myointimal (smooth muscle cell) proliferation of the carotid artery, in words [1]: inhibited significantly | Inhibition of myointimal proliferation, in words ([1]; high dose 50 μg/kg/day, from two days prior to injury): effective | Inhibition of myointimal proliferation, in words ([1]; low dose 20 μg/kg/day, from two days prior to injury): effective | Inhibition of growth hormone release, in words (growth hormone release): less active | Potency for growth hormone suppression in vivo, relative to somatostatin 14 (growth hormone release): 5 | Hyperplasia: ratio of width of intimal and medial layers ([2]; two days pre-treatment and days 4-7, sacrifice day 14, individual rats): 0.46 ± 0.08 and 0.28 ± 0.03 and 0.52 ± 0.05 and 0.69 ± 0.02 | Hyperplasia: ratio of width of intimal and medial layers, mean ([2]; group mean, N 4): 0.48 | Total protein content of injured aortas, in words ([3]; 2 μg/kg, FIG. 2): lowered | DNA/Protein ratio, in words ([3]; 20 μg/kg body weight): significantly lowered | Rates of cell proliferation by 3-H thymidine incorporation, in words ([3]; 20 μg/kg body wt.): significantly lower | DNA/Protein ratio, in words ([3]; 200 μg/kg body wt.): reflected the inhibitory influence | Rates of cell proliferation by 3-H thymidine incorporation, in words ([3]; 200 μg/kg): still inhibited | Wet weight of aortas, in words ([3]; 2, 20, 200 μg/kg body wt. total daily dose, FIG. 1): does not seem to influence | Levels of total proteins, in words ([3]; higher doses (20 and 200 μg/kg), FIG. 2): did not affect | Rates of cell proliferation by 3-H thymidine incorporation, in words ([3]; overall): significantly inhibited | Inhibition of smooth muscle cell proliferation, in words [4]: nearly complete inhibition | CPM (H3-thymidine radioactivity) ([5]; Angiopeptin 10 ng/ml): 35113.84 CPM and 46392.32 CPM and 27312.80 CPM and 55980.00 CPM | CPM (H3-thymidine radioactivity) ([5]; Angiopeptin 20 ng/ml): 26279.81 CPM and 39027.27 CPM and 39706.01 CPM and 21562.08 CPM | CPM (H3-thymidine radioactivity) ([5]; Angiopeptin 50 ng/ml): 18942.16 CPM and 24269.18 CPM and 40768.09 CPM and 18983.78 CPM | CPM (H3-thymidine radioactivity) ([5]; Angiopeptin 100 ng/ml): 20794.85 CPM and 32402.31 CPM and 22033.48 CPM and 26227.64 CPM | CPM (H3-thymidine radioactivity) ([5]; Angiopeptin 1000 ng/ml): 18325.51 CPM and 27260.98 CPM and 30226.99 CPM and 32344.58 CPM | % Intimal hyperplasia ([6]; aorta, female rabbits): 13.0% and 6.4% | Percentage of inhibition of myointimal hyperplasia ([6]; aorta, female rabbits): ~43% | % Intimal hyperplasia ([6]; aorta, male rabbits): 17.0% | Percentage of inhibition of myointimal hyperplasia ([6]; aorta, male rabbits): ~32% | % Intimal hyperplasia [6, 9]: 9.3% and 9.5% and 7.7% and 6.5% | Percentage of inhibition of myointimal hyperplasia [6, 9]: ~33% | % Intimal hyperplasia [6, 10]: 16.0% and 6.4% and 14.0% | Percentage of inhibition of myointimal hyperplasia [6, 10]: ~39% | % Intimal hyperplasia [6, 11]: 6.6% | Percentage of inhibition of myointimal hyperplasia [6, 11]: about 41% | Percentage of inhibition of myointimal hyperplasia ([6]; external iliac artery, male rabbits): ~20%

D-Phe--Cys--Phe-D-Trp--Lys--Thr--Cys--Thr--NH2 [BIM 23012]
Intimal/Media Ratio [1, 7]: 2.3 ± 0.4 | Intimal/Media Ratio [1, 8]: 1.6 ± 0.4 | Inhibition of myointimal (smooth muscle cell) proliferation of the carotid artery, in words [1]: did not inhibit | Potency for growth hormone suppression in vivo, relative to somatostatin 14 (growth hormone release): 62

D-Trp--Lys--Abu--Phe--Me--Ala--Tyr [BIM 23027]
Intimal/Media Ratio [1, 7]: 1.6 ± 0.2 | Intimal/Media Ratio [1, 8]: 1.5 ± 0.2 | Inhibition of myointimal (smooth muscle cell) proliferation of the carotid artery, in words [1]: did not inhibit | Inhibition of growth hormone release, in words (growth hormone release): most potent | Potency for growth hormone suppression in vivo, relative to somatostatin 14 (growth hormone release): 100

[Mpa]Y[dW]KVCF-NH2 (cysteine pairing not given here) [BIM 23030]
Intimal/Media Ratio [1, 7]: 1.6 ± 0.2 | Intimal/Media Ratio [1, 8]: 2.2 ± 0.5 | Inhibition of myointimal (smooth muscle cell) proliferation of the carotid artery, in words [1]: did not inhibit | Potency for growth hormone suppression in vivo, relative to somatostatin 14 (growth hormone release): 0.5
